Results as given in US11649255B2, “Indazoles as hematopoietic progenitor kinase 1 (HPK1) inhibitors and methods using same” (1st Biotherapeutics, Inc., priority 2020, dated 2023).

Target: recombinant human HPK1 (Homo sapiens (Human), UniProt Q92918)
Assay: HPK1 kinase assay (ADP-Glo)
Type: biochemical
Conditions: 25 μM ATP, MBP substrate
How it was run: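 Activity was read as ADP formed, detected by ADP-Glo luminescence after the reaction of 5 ng recombinant human HPK1 with MBP and ATP (stocks 0.5 μg/μl and 25 μM) for 40 min at 30 °C. Buffer was Tris pH 7.5 with MgCl2, BSA and DTT, with compound in 0.5% DMSO. IC50 came from inhibition curves.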

Chain of recombinant human HPK1 (Q92918 whole entry): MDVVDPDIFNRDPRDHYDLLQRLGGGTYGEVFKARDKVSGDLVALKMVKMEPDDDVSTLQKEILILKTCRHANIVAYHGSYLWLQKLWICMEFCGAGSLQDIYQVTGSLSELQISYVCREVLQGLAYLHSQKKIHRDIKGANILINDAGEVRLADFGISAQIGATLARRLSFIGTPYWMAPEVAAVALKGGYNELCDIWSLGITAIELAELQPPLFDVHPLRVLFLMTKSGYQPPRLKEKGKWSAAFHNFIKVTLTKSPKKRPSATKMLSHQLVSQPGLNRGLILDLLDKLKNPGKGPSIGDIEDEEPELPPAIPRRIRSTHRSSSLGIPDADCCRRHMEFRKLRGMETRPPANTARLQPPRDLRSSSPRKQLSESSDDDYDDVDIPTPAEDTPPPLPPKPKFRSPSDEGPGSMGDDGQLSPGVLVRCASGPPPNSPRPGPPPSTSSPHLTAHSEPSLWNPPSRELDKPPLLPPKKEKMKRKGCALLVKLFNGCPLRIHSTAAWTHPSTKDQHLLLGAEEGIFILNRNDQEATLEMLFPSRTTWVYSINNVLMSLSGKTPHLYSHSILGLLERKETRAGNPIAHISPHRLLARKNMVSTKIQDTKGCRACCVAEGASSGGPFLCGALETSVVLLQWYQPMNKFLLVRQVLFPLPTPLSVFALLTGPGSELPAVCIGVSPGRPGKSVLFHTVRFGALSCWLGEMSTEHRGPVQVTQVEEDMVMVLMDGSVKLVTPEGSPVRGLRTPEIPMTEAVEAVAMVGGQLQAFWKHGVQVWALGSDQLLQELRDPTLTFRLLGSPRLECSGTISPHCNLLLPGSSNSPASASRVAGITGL

`CCc1c(F)c(SCC(=O)N(C)C)c2[nH]ncc2c1-c1ccc2nc(NC(=O)[C@@H]3C[C@@H]3F)sc2n1` [Example 166, (1S,2S)-N-(5-(7-((2-(dimethylamino)-2-oxoethyl)thio)-5-ethyl-6-fluoro-1H-indazol-4-yl)thiazolo[5,4-b]pyridin-2-yl)-2-fluorocyclopropane-1-carboxamide] and `CCOc1c(F)c(CC)c(-c2ccc3nc(NC(=O)[C@@H]4C[C@@H]4F)sc3n2)c2cn[nH]c12` [Example 178, (1S,2S)-N-(5-(7-ethoxy-5-ethyl-6-fluoro-1H-indazol-4-yl)thiazolo[5,4-b]pyridin-2-yl)-2-fluorocyclopropane-1-carboxamide] cannot be ordered by IC50: less than 100 nM for the first, less than 100 nM for the second.

`CCOc1c(F)c(Cl)c(-c2ccc3nc(NC(=O)[C@@H]4C[C@@H]4F)sc3n2)c2cn[nH]c12` [Example 149, (1S,2S)—N-(5-(5-chloro-7-ethoxy-6-fluoro-1H-indazol-4-yl)thiazolo[5,4-b]pyridin-2-yl)-2-fluorocyclopropane-1-carboxamide] and `COc1c(F)c(Cl)c(-c2ccc3nc(NC(=O)[C@@H]4C[C@@H]4F)sc3c2)c2cn[nH]c12` [Example 80, (1S,2S)-N-(6-(5-chloro-6-fluoro-7-methoxy-1H-indazol-4-yl)benzo[d]thiazol-2-yl)-2-fluorocyclopropane-1-carboxamide] cannot be ordered by IC50: less than 100 nM for the first, less than 100 nM for the second.

`CCOc1c(F)c(SC)c(-c2ccc3nc(NC(=O)[C@@H]4C[C@@H]4F)cn3c2)c2cn[nH]c12` [Example 310, (1S,2S)-N-(6-(7-ethoxy-6-fluoro-5-(methylthio)-1H-indazol-4-yl)imidazo[1,2-a]pyridin-2-yl)-2-fluorocyclopropane-1-carboxamide] and `Cc1c(F)c(C)c2[nH]ncc2c1-c1ccc2nc(NC(=O)[C@@H]3C[C@@H]3F)cn2c1` [Example 257, (1S,2S)-2-fluoro-N-(6-(6-fluoro-5,7-dimethyl-1H-indazol-4-yl)imidazo[1,2-a]pyridin-2-yl)cyclopropane-1-carboxamide] cannot be ordered by IC50: less than 100 nM for the first, less than 100 nM for the second.

Compared with `CC(=O)c1c(F)c(C)c(-c2ccn3nc(NC(=O)[C@@H]4C[C@@H]4F)cc3c2)c2cn[nH]c12` [Example 566, (1S,2S)-N-(5-(7-acetyl-6-fluoro-5-methyl-1H-indazol-4-yl)pyrazolo[1,5-a]pyridin-2-yl)-2-fluorocyclopropane-1-carboxamide], `Cc1c(F)c(OC(F)(F)F)c2[nH]ncc2c1-c1ccn2nc(NC(=O)[C@@H]3C[C@@H]3F)cc2c1` [Example 592, (1S,2S)-2-fluoro-N-(5-(6-fluoro-5-methyl-7-(trifluoromethoxy)-1H-indazol-4-yl)pyrazolo[1,5-a]pyridin-2-yl)cyclopropane-1-carboxamide] is lower in IC50: 101 to 500 nM for the first, less than 100 nM for the second. The second is the more potent here.

Compared with `Cc1ccc2[nH]ncc2c1-c1ccc2nc(NC(=O)C3CC3)sc2c1` [Example 1, N-(6-(5-methyl-1H-indazol-4-yl)benzo[d]thiazol-2-yl)cyclopropanecarboxamide], `O=C(NCc1ccsc1)c1ccc2[nH]ncc2c1-c1ccc2nc(NC(=O)C3CC3)sc2c1` [Example 23, 4-(2-(cyclopropanecarboxamido)benzo[d]thiazol-6-yl)-N-(thiophen-3-ylmethyl)-1H-indazole-5-carboxamide] is higher in IC50: 101 to 500 nM for the first, greater than 1000 nM for the second.

`CCOc1cc(C)c(-c2ccc3nc(NC(=O)[C@@H]4C[C@@H]4F)sc3c2)c2cn[nH]c12` [Example 101, (1S,2S)-N-(6-(7-ethoxy-5-methyl-1H-indazol-4-yl)benzo[d]thiazol-2-yl)-2-fluorocyclopropane-1-carboxamide] and `Cc1c(F)c(Cl)c(-c2ccc3nc(NC(=O)[C@@H]4C[C@@H]4F)sc3c2)c2cn[nH]c12` [Example 57, (1S,2S)-N-(6-(5-chloro-6-fluoro-7-methyl-1H-indazol-4-yl)benzo[d]thiazol-2-yl)-2-fluorocyclopropane-1-carboxamide] cannot be ordered by IC50: less than 100 nM for the first, less than 100 nM for the second.

Compared with `N#Cc1c(F)cc2[nH]ncc2c1-c1ccc2nc(NC(=O)[C@@H]3C[C@@H]3F)sc2n1` [Example 157, (1S,2S)-N-(5-(5-cyano-6-fluoro-1H-indazol-4-yl)thiazolo[5,4-b]pyridin-2-yl)-2-fluorocyclopropane-1-carboxamide], `CN(C)c1c(F)c(Cl)c(-c2ccc3nc(NC(=O)[C@@H]4C[C@@H]4F)sc3c2)c2cn[nH]c12` [Example 69, (1S,2S)-N-(6-(5-chloro-7-(dimethylamino)-6-fluoro-1H-indazol-4-yl)benzo[d]thiazol-2-yl)-2-fluorocyclopropane-1-carboxamide] is lower in IC50: 101 to 500 nM for the first, less than 100 nM for the second. The second is the more potent here.

`CC(=O)NC(C)c1c(F)c(Cl)c(-c2ccc3nc(NC(=O)[C@@H]4C[C@@H]4F)cn3c2)c2cn[nH]c12` (stereo partly drawn) [Example 417, (1S,2S)-N-(6-(7-(1-acetamidoethyl)-5-chloro-6-fluoro-1H-indazol-4-yl)imidazo[1,2-a]pyridin-2-yl)-2-fluorocyclopropane-1-carboxamide] and `CC(N)c1c(F)c(Cl)c(-c2ccc3nc(NC(=O)[C@@H]4C[C@@H]4F)cn3c2)c2cn[nH]c12` (stereo partly drawn) [Example 399, (1S,2S)-N-(6-(7-(1-aminoethyl)-5-chloro-6-fluoro-1H-indazol-4-yl)imidazo[1,2-a]pyridin-2-yl)-2-fluorocyclopropane-1-carboxamide] cannot be ordered by IC50: less than 100 nM for the first, less than 100 nM for the second.

`CN(c1nccnn1)c1c(F)c(Cl)c(-c2ccn3nc(NC(=O)[C@@H]4C[C@@H]4F)cc3c2)c2cn[nH]c12` [Example 618, (1S,2S)-N-(5-(5-chloro-6-fluoro-7-(methyl(1,2,4-triazin-3-yl)amino)-1H-indazol-4-yl)pyrazolo[1,5-a]pyridin-2-yl)-2-fluorocyclopropane-1-carboxamide] and `CN(c1c(F)c(Cl)c(-c2ccn3nc(NC(=O)[C@@H]4C[C@@H]4F)cc3c2)c2cn[nH]c12)C1CCC1` [Example 620, (1S,2S)-N-(5-(5-chloro-7-(cyclobutyl(methyl)amino)-6-fluoro-1H-indazol-4-yl)pyrazolo[1,5-a]pyridin-2-yl)-2-fluorocyclopropane-1-carboxamide] cannot be ordered by IC50: less than 100 nM for the first, less than 100 nM for the second.

Compared with `O=C(Nc1cn2cc(-c3c(Cl)ccc4[nH]ncc34)ccc2n1)[C@@H]1C[C@@H]1F` [Example 237, (1S,2S)-N-(6-(5-chloro-1H-indazol-4-yl)imidazo[1,2-a]pyridin-2-yl)-2-fluorocyclopropane-1-carboxamide], `O=C(Nc1cn2cc(-c3c(C4CC4)ccc4[nH]ncc34)ccc2n1)C1CC1` [Example 244, N-(6-(5-cyclopropyl-1H-indazol-4-yl)imidazo[1,2-a]pyridin-2-yl)cyclopropanecarboxamide] is higher in IC50: less than 100 nM for the first, 101 to 500 nM for the second. The first is the more potent here.

`O=C(Nc1cn2cc(-c3c(C(F)F)c(F)cc4[nH]ncc34)ccc2n1)C1CC1` [Example 255, N-(6-(5-(difluoromethyl)-6-fluoro-1H-indazol-4-yl)imidazo[1,2-a]pyridin-2-yl)cyclopropanecarboxamide] and `Cc1c(F)c(N(C)C)c2[nH]ncc2c1-c1ccc2nc(NC(=O)[C@@H]3C[C@@H]3F)cn2c1` [Example 273, (1S,2S)-N-(6-(7-(dimethylamino)-6-fluoro-5-methyl-1H-indazol-4-yl)imidazo[1,2-a]pyridin-2-yl)-2-fluorocyclopropane-1-carboxamide] cannot be ordered by IC50: less than 100 nM for the first, less than 100 nM for the second.

`CN(c1c(F)c(Cl)c(-c2ccc3nc(NC(=O)[C@@H]4C[C@@H]4F)sc3c2)c2cn[nH]c12)C1CNC1` [Example 129, (1S,2S)-N-(6-(7-(azetidin-3-yl(methyl)amino)-5-chloro-6-fluoro-1H-indazol-4-yl)benzo[d]thiazol-2-yl)-2-fluorocyclopropane-1-carboxamide] and `CSc1c(F)c(C)c(-c2ccc3nc(NC(=O)[C@@H]4C[C@@H]4F)sc3c2)c2cn[nH]c12` [Example 64, (1S,2S)-2-fluoro-N-(6-(6-fluoro-5-methyl-7-(methylthio)-1H-indazol-4-yl)benzo[d]thiazol-2-yl)cyclopropane-1-carboxamide] cannot be ordered by IC50: less than 100 nM for the first, less than 100 nM for the second.

`O=C(Nc1cc2cc(-c3c(Cl)c(F)c(N4CCS(=O)(=O)CC4)c4[nH]ncc34)ccn2n1)[C@@H]1C[C@@H]1F` [Example 628, (1S,2S)-N-(5-(5-chloro-7-(1,1-dioxidothiomorpholino)-6-fluoro-1H-indazol-4-yl)pyrazolo[1,5-a]pyridin-2-yl)-2-fluorocyclopropane-1-carboxamide] and `O=C(Nc1cc2cc(-c3c(Cl)c(F)c(C4CCCC4)c4[nH]ncc34)ccn2n1)[C@@H]1C[C@@H]1F` [Example 651, (1S,2S)-N-(5-(5-chloro-7-cyclopentyl-6-fluoro-1H-indazol-4-yl)pyrazolo[1,5-a]pyridin-2-yl)-2-fluorocyclopropane-1-carboxamide] cannot be ordered by IC50: less than 100 nM for the first, less than 100 nM for the second.

`Cc1cccn1-c1c(F)c(Cl)c(-c2ccc3nc(NC(=O)[C@@H]4C[C@@H]4F)cn3c2)c2cn[nH]c12` [Example 388, (1S,2S)-N-(6-(5-chloro-6-fluoro-7-(2-methyl-1H-pyrrol-1-yl)-1H-indazol-4-yl)imidazo[1,2-a]pyridin-2-yl)-2-fluorocyclopropane-1-carboxamide] and `CC(=O)Nc1c(F)c(C)c(-c2ccc3nc(NC(=O)[C@@H]4C[C@@H]4F)sc3c2)c2cn[nH]c12` [Example 113, (1S,2S)-N-(6-(7-acetamido-6-fluoro-5-methyl-1H-indazol-4-yl)benzo[d]thiazol-2-yl)-2-fluorocyclopropane-1-carboxamide] cannot be ordered by IC50: less than 100 nM for the first, less than 100 nM for the second.

First: CCc1n[nH]c2cc(F)c(C)c(-c3ccn4nc(NC(=O)[C@@H]5C[C@@H]5F)cc4c3)c12 [Example 475, (1S,2S)-N-(5-(3-ethyl-6-fluoro-5-methyl-1H-indazol-4-yl)pyrazolo[1,5-a]pyridin-2-yl)-2-fluorocyclopropane-1-carboxamide]
Second: CCOc1c(F)c(N(C)C)c2[nH]ncc2c1-c1ccn2nc(NC(=O)[C@@H]3C[C@@H]3F)cc2c1 [Example 610, (1S,2S)-N-(5-(7-(dimethylamino)-5-ethoxy-6-fluoro-1H-indazol-4-yl)pyrazolo[1,5-a]pyridin-2-yl)-2-fluorocyclopropane-1-carboxamide]
The IC50 of the first is higher: greater than 1000 nM for the first, less than 100 nM for the second. The second is the more potent here.
